Experimental data from US20240174618A1, “SUBSTITUTED (2-HETEROARYLOXYPHENYL)SULFONATES, SALTS THEREOF AND THEIR USE AS HERBICIDAL AGENTS” (Bayer Aktiengesellschaft, priority 2021, published 2024).

Columns and labels:
Format in all cases: in vivo
[1] = system: Echinochloa crus-galli (ECHCG); experiment: C. Herbicidal pre-emergence efficacy, ECHCG; conditions: scored after about 3 weeks
How it was run: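 Pre-emergence test: formulated compounds sprayed as aqueous suspension or emulsion with 0.5% additive at 600 l/ha onto soil covering sown seeds, at rates corresponding to 320 g/ha or less. After about 3 weeks in greenhouse, efficacy scored visually as percent versus untreated controls (100% = plants dead).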

[2] = system: Pharbitis purpurea (PHBPU); experiment: E. Herbicidal post-emergence efficacy, PHBPU
How it was run: (§1)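 Greenhouse weeds were treated post-emergence at the one-leaf stage, 2-3 weeks after sowing in sandy loam, with WP or EC formulations sprayed as aqueous suspension/emulsion plus 0.5% additive at 600 l/ha, at 320 g/ha or less. Efficacy was rated visually after about 3 weeks versus untreated controls (100% = dead, 0% = like control).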

Setaria viridis (SETVI) [3] = experiment: B. Herbicidal post-emergence efficacy, SETVI
How it was run: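 Post-emergence greenhouse test: one-leaf-stage plants, compound (WP/EC, +0.5% additive, 600 L/ha water, ≤1280 g/ha) applied to green parts; % efficacy scored visually vs untreated after ~3 wk; 100% = plants died.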

[4] = system: Amaranthus retroflexus (AMARE); experiment: E. Herbicidal post-emergence efficacy, AMARE
How it was run: as §1

Poa annua (POAAN) = experiment: A. Herbicidal pre-emergence efficacy, POAAN
How it was run: (§2)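 Pre-emergence soil-surface spray in sandy loam pots, WP/EC in water plus 0.5% additive, 600 L/ha. Visual % damage rating after about 3 weeks in greenhouse vs. untreated; 0% = control-like, 100% = dead plants. Rates up to 1280 g/ha.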

Setaria viridis (SETVI) [5] = experiment: A. Herbicidal pre-emergence efficacy, SETVI
How it was run: as §2

Kochia scoparia (KCHSC) = experiment: E. Herbicidal post-emergence efficacy, KCHSC
How it was run: as §1

[6] = system: Digitaria sanguinalis (DIGSA); experiment: A. Herbicidal pre-emergence efficacy, DIGSA; conditions: scored visually after about 3 weeks vs untreated controls
How it was run: as §2

Row | Compound | Pre-emergence efficacy against ECHCG ([1]; 80 g/ha) [%] | Pre-emergence efficacy against ECHCG ([1]; 320 g/ha) [%] | Post-emergence efficacy against PHBPU in % ([2]; application rate 80 g/ha) [%] | Post-emergence efficacy against PHBPU in % ([2]; application rate 320 g/ha) [%] | Post-emergence efficacy against SETVI (Setaria viridis (SETVI) [3]; 1280 g/ha) [%] | Post-emergence efficacy against AMARE in % ([4]; application rate 80 g/ha) [%] | Post-emergence efficacy against AMARE in % ([4]; application rate 320 g/ha) [%] | Pre-emergence efficacy against POAAN (Poa annua (POAAN); dosage 80 g/ha) [%] | Pre-emergence efficacy against POAAN (Poa annua (POAAN); dosage 320 g/ha) [%] | Pre-emergence efficacy against POAAN (Poa annua (POAAN); dosage 1280 g/ha) [%] | Pre-emergence efficacy against SETVI (Setaria viridis (SETVI) [5]; dosage 80 g/ha) [%] | Pre-emergence efficacy against SETVI (Setaria viridis (SETVI) [5]; dosage 320 g/ha) [%] | Pre-emergence efficacy against SETVI (Setaria viridis (SETVI) [5]; dosage 1280 g/ha) [%] | Post-emergence efficacy against KCHSC in % (Kochia scoparia (KCHSC); application rate 80 g/ha) [%] | Post-emergence efficacy against KCHSC in % (Kochia scoparia (KCHSC); application rate 320 g/ha) [%] | Pre-emergence efficacy against DIGSA ([6]; 80 g/ha) [%] | Pre-emergence efficacy against DIGSA ([6]; 320 g/ha) [%] | Pre-emergence efficacy against DIGSA ([6]; 1280 g/ha) [%] | Post-emergence efficacy against SETVI (Setaria viridis (SETVI) [3]; 320 g/ha) [%]
1 | C=CCCS(=O)(=O)Oc1c(F)cccc1Oc1ncc(Cl)cn1 [Example I-50] | 80 | 100 | 90 | 90 | 90 | 100 | 100 | 90 | 90 | 100 | 90 | 90 | 100 | 80 | 100 | 90 | 90 | 100 | 
2 | O=S(=O)(CC1CC(F)(F)C1)Oc1c(F)cccc1Oc1ncc(Cl)cn1 [Example I-53] | 100 | 100 | 100 | 100 | 90 | 100 | 100 | 100 | 100 | 100 | 100 | 100 | 100 | 90 | 90 | 100 | 100 | 100 | 90
3 | O=S(=O)(CCC1CC1)Oc1c(F)cccc1Oc1ncc(Cl)cn1 [Example I-55] | 90 | 100 | 90 | 100 | 90 | 90 | 100 |  | 90 | 100 | 100 | 100 | 100 | 80 | 90 | 100 | 100 | 100 | 90
4 | O=S(=O)(CCCC(F)F)Oc1c(F)cccc1Oc1ncc(Cl)cn1 [Example I-56] | 100 | 100 | 100 | 100 | 90 | 100 | 100 | 90 | 100 | 100 | 100 | 100 | 100 | 100 | 100 | 100 | 100 | 100 | 90
5 | O=S(=O)(CCCC(F)(F)C(F)(F)F)Oc1c(F)cccc1Oc1ncc(Cl)cn1 [Example I-68] |  | 90 | 80 | 90 | 90 | 90 | 100 |  | 90 | 100 | 90 | 100 | 100 | 80 | 90 |  | 90 | 100 | 90
6 | Cc1cccc(Oc2ncc(Cl)cn2)c1OS(=O)(=O)CC1CC(F)(F)C1 [Example I-74] |  | 100 |  | 90 | 100 | 90 | 100 |  | 100 | 100 |  | 90 | 100 |  | 80 |  | 100 | 100 | 
